Test results as given in patent publication US4254106A, “Biologically active amides” (priority 1976, dated 1981).
Counter-ions that a name gives are not always drawn. Non-standard residues stand in square brackets, D forms with d. Residues, ends and D or L forms follow the SMILES beside them.

Tested on: isolated mouse vas deferens
Type: cell-based
Conditions: for Relative Potency (Morphine): RP=antilog[logD50(morphine)-logD50(test compound)]; for IC50: dose giving the response halfway between maximum response and minimum contraction, pulses at 0.1 Hz, mean of generally at least two cumulative dose response curves, read-out: Mean D50
Description: The compounds were examined for their ability to inhibit neurally evoked contractions of the isolated mouse vas deferens preparation (method of Hughes et al, Brain Research, 88 (1975) 296, using pulses at 0.1 Hz).
The heights of the five contractions that immediately preceded the addition of the first "dose" of test compound were measured and their mean calculated. The resultant mean contraction associated with a particular bath concentration of test compound was calculated from the heights of the 6th, 7th, 8th, 9th and 10th contractions after the addition of the appropriate "dose" of test compound, i.e. the five contractions that immediately preceded the subsequent "dose" or washout.
The mean control contraction height and the concentration related mean contraction heights were used to compute the constants in an equation based on the Langmuir Adsorption Isotherm which defined the dose response curve: [formula] where y=contraction (mm)
For each test compound the D50 was calculated, defined as the dose giving the resonse that is halfway between the maximum response and the minimum contraction of the tissue.
Generally at least two cumulative dose response curves were constructed and a mean D50 calculated.

Structure (SMILES) | Relative Potency (Morphine) | IC50 | Reversal of the inhibition of contractions by naloxone
CSCC[C@H](NC(=O)[C@H](Cc1ccccc1)NC(=O)CNC(=O)[C@@H](C)NC(=O)[C@@H](N)Cc1ccc(O)cc1)C(=O)O [5(a), H.Tyr.D-Ala.Gly.Phe.Met.OH HCl] | 229 | 2.03 nM | 
COC(=O)[C@H](CCSC)NC(=O)[C@H](Cc1ccccc1)NC(=O)CNC(=O)[C@@H](C)NC(=O)[C@@H](N)Cc1ccc(O)cc1 [5(b), H.Tyr.D-Ala.Gly.Phe.Met.OMe] | 94 | 4.95 nM | 
CC(C)C[C@H](NC(=O)[C@H](Cc1ccccc1)NC(=O)CNC(=O)[C@@H](C)NC(=O)[C@@H](N)Cc1ccc(O)cc1)C(=O)O [Example 4, H.Tyr.D-Ala.Gly.Phe.Leu.OH HCl] | 267 | 1.74 nM | 
CSCC[C@H](NC(=O)[C@H](Cc1ccccc1)NC(=O)CNC(=O)[C@@H](C)NC(=O)[C@@H](N)Cc1ccc(O)cc1)C(=O)N[C@H](C(=O)O)[C@@H](C)O [Example 14, H.Tyr.D-Ala.Gly.Phe.Met.Thr.OH HCl] (H-Y[dA]GFMT-OH) | 229 | 2.03 nM | 
CN1CC[C@]23c4c5ccc(O)c4O[C@H]2[C@@H](O)C=C[C@H]3[C@H]1C5 [Morphine, reference compound] |  |  | Reversal of the inhibition of the contractions was effected
